Data: article PMC8621193, “In Vitro Evaluation of a Solid Supersaturated Self Nanoemulsifying Drug Delivery System (Super-SNEDDS) of Aprepitant for Enhanced Solubility” (Pharmaceuticals, 2021)
≈ marks a conversion by molar mass, not a printed value. Read-outs that look alike come from different tables or passages of the source.

Experiments:
[1] = cited from earlier work
[2] = cited from earlier work; remark: listed apart in the source
[3] = Equilibrium (apparent) solubility of APR, shake flask method; type: physicochemical; details: for solubility at 24 h: thermodynamic from solid
Experimental: The solubility of APR in various buffers, oils, surfactants, cosurfactants, cosolvents, and formulations was measured using the shake flask method. Briefly, an excess APR was added into a polypropylene tube that contains a medium. Tube mixed by a vortex (Daihan VM-10, South Korea) for 1 min to disperse APR. Mixtures were shaken at 100 rpm for 24 h at various temperatures in a thermostatically controlled shaking water bath (Nüve ST30, Turkey). Mixtures were then centrifuged at 13,500 rpm (12,225× g) for 15 min. The supernatant samples were suitably diluted with the mobile phase. Drug concentration was obtained via the validated HPLC method.
Saturated SNEDDS were prepared by adding excess APR into blank preconcentrates and then precipitate the insoluble part of APR. Briefly, SNEDDS and excess APR mixtures were shaken at 100 rpm for 24 h at 37 °C in a shaking water bath. Mixtures were then centrifuged at 13,500 rpm (12,225× g) for 15 min. The supernatant was separated carefully to obtain saturated SNEDDS.

solubility at 24 h ([3]; 37 °C, organic solvent or mixture, Imwitor 988:Kolliphor RH40:Transcutol P (%) 20:60:20, 37 °C, read-out: APR solubility (loading capacity of SNEDDS preconcentrate)): 21600 µg/mL (≈ 40.5 mM)
solubility at 24 h ([3]; 37 °C, organic solvent or mixture, Imwitor 988:Kolliphor RH40:Transcutol P (%) 30:10:60, 37 °C, read-out: APR solubility (loading capacity of SNEDDS preconcentrate)): 55300 µg/mL (≈ 104 mM)
solubility at 24 h ([3]; Brij O10 (surfactant), 25 °C, aqueous with cosolvent or surfactant or cyclodextrin, surfactant Brij O10, 25 °C, read-out: APR solubility): 9870 µg/mL (≈ 18.5 mM)
solubility at 24 h ([3]; Capryol 90 (cosurfactant), 25 °C, organic solvent or mixture, cosurfactant Capryol 90, 25 °C, read-out: APR solubility): 17000 µg/mL (≈ 31.8 mM)
solubility at 24 h ([3]; Castor oil (oily excipient), 25 °C, oil or lipid, oily excipient Castor oil, 25 °C, read-out: APR solubility): 2920 µg/mL (≈ 5.47 mM)
solubility at 24 h ([3]; Cinnamon oil (oily excipient), 25 °C, oil or lipid, oily excipient Cinnamon oil, 25 °C, read-out: APR solubility): 8470 µg/mL (≈ 15.8 mM)
solubility at 24 h ([3]; Eucalyptus oil (oily excipient), 25 °C, oil or lipid, oily excipient Eucalyptus oil, 25 °C, read-out: APR solubility): 6840 µg/mL (≈ 12.8 mM)
solubility at 24 h ([3]; Glycerine (cosolvent), 25 °C, organic solvent or mixture, cosolvent Glycerine, 25 °C, read-out: APR solubility): 13 µg/mL (≈ 0.0243 mM)
solubility at 24 h ([3]; Imwitor 988 (oily excipient), 25 °C, oil or lipid, oily excipient Imwitor 988, 25 °C, read-out: APR solubility): 19800 µg/mL (≈ 37 mM)
solubility at 24 h ([3]; Kolliphor ELP (surfactant), 25 °C, aqueous with cosolvent or surfactant or cyclodextrin, surfactant Kolliphor ELP, 25 °C, read-out: APR solubility): 4230 µg/mL (≈ 7.92 mM)
solubility at 24 h ([3]; Kolliphor HS15 (surfactant), 25 °C, aqueous with cosolvent or surfactant or cyclodextrin, surfactant Kolliphor HS15, 25 °C, read-out: APR solubility): 7160 µg/mL (≈ 13.4 mM)
solubility at 24 h ([3]; Kolliphor RH40 (surfactant), 25 °C, aqueous with cosolvent or surfactant or cyclodextrin, surfactant Kolliphor RH40, 25 °C, read-out: APR solubility): 8980 µg/mL (≈ 16.8 mM)
solubility at 24 h ([3]; Kollisolv GTA (oily excipient), 25 °C, oil or lipid, oily excipient Kollisolv GTA, 25 °C, read-out: APR solubility): 3150 µg/mL (≈ 5.89 mM)
solubility at 24 h ([3]; Kollisolv P124 (surfactant), 25 °C, aqueous with cosolvent or surfactant or cyclodextrin, surfactant Kollisolv P124, 25 °C, read-out: APR solubility): 10700 µg/mL (≈ 20 mM)
solubility at 24 h ([3]; Labrafac PG (oily excipient), 25 °C, oil or lipid, oily excipient Labrafac PG, 25 °C, read-out: APR solubility): 427 µg/mL (≈ 0.799 mM)
solubility at 24 h ([3]; Labrafac lipophile WL 1349 (oily excipient), 25 °C, oil or lipid, oily excipient Labrafac lipophile WL 1349, 25 °C, read-out: APR solubility): 282 µg/mL (≈ 0.528 mM)
solubility at 24 h ([3]; Labrafil M 1944 CS (surfactant), 25 °C, aqueous with cosolvent or surfactant or cyclodextrin, surfactant Labrafil M 1944 CS, 25 °C, read-out: APR solubility): 3500 µg/mL (≈ 6.55 mM)
solubility at 24 h ([3]; Labrafil M 2125 CS (surfactant), 25 °C, aqueous with cosolvent or surfactant or cyclodextrin, surfactant Labrafil M 2125 CS, 25 °C, read-out: APR solubility): 2840 µg/mL (≈ 5.32 mM)
solubility at 24 h ([3]; Labrasol (surfactant), 25 °C, aqueous with cosolvent or surfactant or cyclodextrin, surfactant Labrasol, 25 °C, read-out: APR solubility): 15900 µg/mL (≈ 29.8 mM)
solubility at 24 h ([3]; Lauroglycol 90 (cosurfactant), 25 °C, organic solvent or mixture, cosurfactant Lauroglycol 90, 25 °C, read-out: APR solubility): 9320 µg/mL (≈ 17.4 mM)
solubility at 24 h ([3]; Lauroglycol FCC (cosurfactant), 25 °C, organic solvent or mixture, cosurfactant Lauroglycol FCC, 25 °C, read-out: APR solubility): 14200 µg/mL (≈ 26.6 mM)
solubility at 24 h ([3]; Lemon oil (oily excipient), 25 °C, oil or lipid, oily excipient Lemon oil, 25 °C, read-out: APR solubility): 3090 µg/mL (≈ 5.79 mM)
solubility at 24 h ([3]; Maisine CC (oily excipient), 25 °C, oil or lipid, oily excipient Maisine CC, 25 °C, read-out: APR solubility): 5360 µg/mL (≈ 10 mM)
solubility at 24 h ([3]; Miglyol 812 (oily excipient), 25 °C, oil or lipid, oily excipient Miglyol 812, 25 °C, read-out: APR solubility): 299 µg/mL (≈ 0.559 mM)
solubility at 24 h ([3]; Miglyol 840 (oily excipient), 25 °C, oil or lipid, oily excipient Miglyol 840, 25 °C, read-out: APR solubility): 1590 µg/mL (≈ 2.97 mM)
solubility at 24 h ([3]; Oleic acid (oily excipient), 25 °C, oil or lipid, oily excipient Oleic acid, 25 °C, read-out: APR solubility): 8480 µg/mL (≈ 15.9 mM)
solubility at 24 h ([3]; Olive Yağı (oily excipient), 25 °C, oil or lipid, oily excipient Olive Yağı, 25 °C, read-out: APR solubility): 181 µg/mL (≈ 0.339 mM)
solubility at 24 h ([3]; PEG 200 (cosolvent), 25 °C, organic solvent or mixture, cosolvent PEG 200, 25 °C, read-out: APR solubility): 11700 µg/mL (≈ 21.9 mM)
solubility at 24 h ([3]; PEG 400 (cosolvent), 25 °C, organic solvent or mixture, cosolvent PEG 400, 25 °C, read-out: APR solubility): 12000 µg/mL (≈ 22.5 mM)
solubility at 24 h ([3]; Peceol (oily excipient), 25 °C, oil or lipid, oily excipient Peceol, 25 °C, read-out: APR solubility): 7780 µg/mL (≈ 14.5 mM)
solubility at 24 h ([3]; Peppermint oil (oily excipient), 25 °C, oil or lipid, oily excipient Peppermint oil, 25 °C, read-out: APR solubility): 16600 µg/mL (≈ 31 mM)
solubility at 24 h ([3]; Plurol Oleique CC 497 (cosurfactant), 25 °C, organic solvent or mixture, cosurfactant Plurol Oleique CC 497, 25 °C, read-out: APR solubility): 4140 µg/mL (≈ 7.75 mM)
solubility at 24 h ([3]; Propylene glycol (cosolvent), 25 °C, organic solvent or mixture, cosolvent Propylene glycol, 25 °C, read-out: APR solubility): 8380 µg/mL (≈ 15.7 mM)
solubility at 24 h ([3]; Sesame oil (oily excipient), 25 °C, oil or lipid, oily excipient Sesame oil, 25 °C, read-out: APR solubility): 2230 µg/mL (≈ 4.17 mM)
solubility at 24 h ([3]; Transcutol P (cosolvent), 25 °C, organic solvent or mixture, cosolvent Transcutol P, 25 °C, read-out: APR solubility): 46500 µg/mL (≈ 87 mM)
solubility at 24 h ([3]; Tween 20 (surfactant), 25 °C, aqueous with cosolvent or surfactant or cyclodextrin, surfactant Tween 20, 25 °C, read-out: APR solubility): 7820 µg/mL (≈ 14.6 mM)
solubility at 24 h ([3]; Tween 60 (surfactant), 25 °C, aqueous with cosolvent or surfactant or cyclodextrin, surfactant Tween 60, 25 °C, read-out: APR solubility): 5040 µg/mL (≈ 9.44 mM)
solubility at 24 h ([3]; Tween 80 (surfactant), 25 °C, aqueous with cosolvent or surfactant or cyclodextrin, surfactant Tween 80, 25 °C, read-out: APR solubility): 2140 µg/mL (≈ 4 mM)
solubility at 24 h ([3]; blank SNEDDS preconcentrate, 37 °C, organic solvent or mixture, Imwitor 988:Kolliphor RH40:Transcutol P (%) 10:30:60, 37 °C, read-out: APR solubility (loading capacity of SNEDDS preconcentrate)): 43100 µg/mL (≈ 80.7 mM)
solubility at 24 h ([3]; blank SNEDDS preconcentrate, 37 °C, organic solvent or mixture, Imwitor 988:Kolliphor RH40:Transcutol P (%) 10:40:50, 37 °C, read-out: APR solubility (loading capacity of SNEDDS preconcentrate)): 34600 µg/mL (≈ 64.7 mM)
solubility at 24 h ([3]; blank SNEDDS preconcentrate, 37 °C, organic solvent or mixture, Imwitor 988:Kolliphor RH40:Transcutol P (%) 10:50:40, 37 °C, read-out: APR solubility (loading capacity of SNEDDS preconcentrate)): 26900 µg/mL (≈ 50.4 mM)
solubility at 24 h ([3]; blank SNEDDS preconcentrate, 37 °C, organic solvent or mixture, Imwitor 988:Kolliphor RH40:Transcutol P (%) 10:60:30, 37 °C, read-out: APR solubility (loading capacity of SNEDDS preconcentrate)): 22900 µg/mL (≈ 42.9 mM)
solubility at 24 h ([3]; blank SNEDDS preconcentrate, 37 °C, organic solvent or mixture, Imwitor 988:Kolliphor RH40:Transcutol P (%) 10:70:20, 37 °C, read-out: APR solubility (loading capacity of SNEDDS preconcentrate)): 18800 µg/mL (≈ 35.2 mM)
solubility at 24 h ([3]; blank SNEDDS preconcentrate, 37 °C, organic solvent or mixture, Imwitor 988:Kolliphor RH40:Transcutol P (%) 10:80:10, 37 °C, read-out: APR solubility (loading capacity of SNEDDS preconcentrate)): 15500 µg/mL (≈ 28.9 mM)
solubility at 24 h ([3]; blank SNEDDS preconcentrate, 37 °C, organic solvent or mixture, Imwitor 988:Kolliphor RH40:Transcutol P (%) 20:10:70, 37 °C, read-out: APR solubility (loading capacity of SNEDDS preconcentrate)): 51000 µg/mL (≈ 95.4 mM)
solubility at 24 h ([3]; blank SNEDDS preconcentrate, 37 °C, organic solvent or mixture, Imwitor 988:Kolliphor RH40:Transcutol P (%) 20:40:40, 37 °C, read-out: APR solubility (loading capacity of SNEDDS preconcentrate)): 29000 µg/mL (≈ 54.3 mM)
solubility at 24 h ([3]; blank SNEDDS preconcentrate, 37 °C, organic solvent or mixture, Imwitor 988:Kolliphor RH40:Transcutol P (%) 20:50:30, 37 °C, read-out: APR solubility (loading capacity of SNEDDS preconcentrate)): 23500 µg/mL (≈ 44 mM)
solubility at 24 h ([3]; blank SNEDDS preconcentrate, 37 °C, organic solvent or mixture, Imwitor 988:Kolliphor RH40:Transcutol P (%) 20:70:10, 37 °C, read-out: APR solubility (loading capacity of SNEDDS preconcentrate)): 15800 µg/mL (≈ 29.6 mM)
solubility at 24 h ([3]; blank SNEDDS preconcentrate, 37 °C, organic solvent or mixture, Imwitor 988:Kolliphor RH40:Transcutol P (%) 30:20:50, 37 °C, read-out: APR solubility (loading capacity of SNEDDS preconcentrate)): 45100 µg/mL (≈ 84.3 mM)
solubility at 24 h ([3]; blank SNEDDS preconcentrate, 37 °C, organic solvent or mixture, Imwitor 988:Kolliphor RH40:Transcutol P (%) 30:60:10, 37 °C, read-out: APR solubility (loading capacity of SNEDDS preconcentrate)): 17000 µg/mL (≈ 31.9 mM)
solubility at 24 h ([3]; buffer pH 1.2, 37 °C, pH 1.2, simulated gastric fluid, buffer pH 1.2, 37 °C, 24 h, read-out: APR solubility): 15.6 µg/mL (≈ 0.0293 mM)
solubility at 24 h ([3]; buffer pH 4.5, 37 °C, pH 4.5, aqueous buffer, buffer pH 4.5, 37 °C, 24 h, read-out: APR solubility): 0.79 µg/mL (≈ 0.00148 mM)
APR solubility ([3]; buffer pH 6.8, 37 °C, 24 h): < LOD
APR solubility ([3]; buffer pH 7.4, 37 °C, 24 h): < LOD
Compound: C[C@@H](O[C@H]1OCCN(Cc2nc(=O)[nH][nH]2)[C@H]1c1ccc(F)cc1)c1cc(C(F)(F)F)cc(C(F)(F)F)c1 [APR, 5-(((2R,3S)-2-((1R)-1-(3,5-bis(trifluoromethyl)phenyl)ethoxy)-3-(4-fluorophenyl)4-morpholinyl)methyl)-1,2-dihydro-3H-1,2,4-triazol-3-one]
mean oral bioavailability ([1]; 80 mg Emend capsule): 67%
mean oral bioavailability ([1]; 125 mg Emend capsule): 59%
time to maximum plasma concentration (Tmax) ([1]; in vivo): 4 h
time of mean peak plasma concentration ([1]; ref 14): approximately 4 h
solubility in acetonitrile ([2]; acetonitrile): slightly soluble
logP ([2]; at neutral pH): 4.8
permeability [2]: moderate
solubility in ethanol ([2]; ethanol): sparingly soluble
solubility in isopropyl acetate ([2]; isopropyl acetate): sparingly soluble
pKa ([2]; ref 5): 9.7
Biopharmaceutical Classification System (BCS) class ([2]; ref 7): Class II
Biopharmaceutical Classification System (BCS) class ([2]; ref 8): Class IV
solubility in water ([2]; water): practically insoluble
